Reference: patent US10358451B2, “Heterocycles useful as IDO and TDO inhibitors” (Hangzhou Innogate Pharma Co., Ltd., priority 2015, dated 2019)

Tests used:
human IDO enzyme (IDO1) = human IDO enzyme (IDO1) (Homo sapiens (Human), UniProt P14902); assay: IDO1 enzyme assay; assay type: biochemical; details: for inhibition at 0.5 µM: read-out: IDO1 (inhibition % at 500 nM)
Method: The compounds were initially prepared in DMSO at 10 mM, then diluted in MES buffer to desired concentration. […] The mixture was centrifuged for 1 minute, then pre-incubated at room temperature for 30 minutes. […] The resulting reaction mixture was incubated at 25° C. for 40 minutes. The reaction was terminated by adding 50 ul of 30% (w/v) trichloroacetic acid. The sample was further incubated for 30 min at 60° C. and centrifuged at 2000 rpm for 5 min to remove precipitated protein. The supernatant was used to mix with an equal volume of Ehrlich's reagent (2% w/v p-dimethylaminobenzaldehyde in glacial acetic acid), then mixture was incubated at room temperature for 10 minutes. OD value was read at 490 nm in a spectrophotometer.
wherein High control=no compound; Low control=no enzyme and no compound.
IC50 values were calculated by fitting the doseresponse curves with Xlfit excel add-in version 4.3.1.

human TDO enzyme = human TDO enzyme (Homo sapiens (Human), UniProt P48775); assay: TDO enzyme assay; assay type: biochemical; details: for inhibition at 1 µM: read-out: TDO (inhibition % at 1000 nM)
human TDO enzyme, sequence (P48775 whole entry): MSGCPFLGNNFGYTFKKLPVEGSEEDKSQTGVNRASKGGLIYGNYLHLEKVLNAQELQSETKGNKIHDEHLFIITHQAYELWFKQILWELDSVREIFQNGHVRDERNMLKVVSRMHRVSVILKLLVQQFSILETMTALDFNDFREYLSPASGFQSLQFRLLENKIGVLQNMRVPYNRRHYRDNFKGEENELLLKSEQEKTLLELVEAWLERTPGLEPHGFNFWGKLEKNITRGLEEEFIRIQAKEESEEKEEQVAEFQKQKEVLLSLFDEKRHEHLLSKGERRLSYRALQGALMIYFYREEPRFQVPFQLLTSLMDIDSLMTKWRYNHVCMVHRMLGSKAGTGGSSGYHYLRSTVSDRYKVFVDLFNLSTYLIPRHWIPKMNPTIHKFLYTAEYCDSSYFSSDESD
Method: In vitro TDO enzymatic activity was determined in a mixture of 50 mM potassium phosphate buffer, pH 6.5; 200 nM human TDO enzyme, 300 μM L-Tryptophan, 0.2 mg/mL Catalase, 20 mM ascorbic Acid and 20 μM Methylene Blue. 100× compounds were prepared in DMSO from 1 mM, then diluted three fold, 8 doses in total. 2 μL compounds were added to 96 well plate, followed by addition of 100 μL 400 nM TDO and 0.4 mg/ml catalase in each well. The mixture was centrifuged for 1 minute, then pre-incubated at room temperature for 10 minutes. The reaction was started by the addition of 100 μL mixture of 600 μM L-Tryptophan, 40 μM methylene blue and 40 mM ascorbic acid in 50 mM potassium phosphate buffer, pH 6.5. […] Copy slope data from Synergy program, and convert slope values to inhibition values. Percent inhibition=(max−conversion)/(max−min)*100. “max” stands for high control; “min” stands for low control. Fit the data in GraphPad Prism5.0 to obtain IC50 values. Equation used is: Y=Bottom+(Top−Bottom)/(1+10^((Log IC50−X)*HillSlope).

human IDO enzyme (IDO1), sequence (P14902 whole entry): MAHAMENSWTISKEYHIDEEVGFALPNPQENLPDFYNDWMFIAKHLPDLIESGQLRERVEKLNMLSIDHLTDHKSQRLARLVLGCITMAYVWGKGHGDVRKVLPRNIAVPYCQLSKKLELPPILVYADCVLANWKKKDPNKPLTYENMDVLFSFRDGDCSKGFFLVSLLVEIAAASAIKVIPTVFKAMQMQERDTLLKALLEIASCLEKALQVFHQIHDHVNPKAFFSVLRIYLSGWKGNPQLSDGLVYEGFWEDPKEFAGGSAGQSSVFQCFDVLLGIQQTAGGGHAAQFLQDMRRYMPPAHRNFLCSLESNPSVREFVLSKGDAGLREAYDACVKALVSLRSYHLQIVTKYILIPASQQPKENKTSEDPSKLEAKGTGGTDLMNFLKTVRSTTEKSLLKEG

inhibition at 1 µM (human TDO enzyme) [%] | Compound | inhibition at 0.5 µM (human IDO enzyme (IDO1)) [%] | IC50 (human IDO enzyme (IDO1)) [nM] | IC50 (human TDO enzyme) [nM]
 | OC(CC1c2ccccc2-c2cncn21)C1CCN(c2ccccc2)CC1 (stereo not shown) [Compound 1, 2-(5H-imidazo[5,1-a]isoindol-5-yl)-1-(1-phenylpiperidin-4-yl)ethanol] | > 50 |  | 
> 50 | OC(CC1c2ccccc2-c2cncn21)C1CCN(C2CC2)CC1 (stereo not shown) [Compound 3, 1-(1-cyclopropylpiperidin-4-yl)-2-(5H-imidazo[5,1-a]isoindol-5-yl)ethanol] |  |  | 
 | O=[N+]([O-])c1ccccc1N1CCC(C(O)CC2c3ccccc3-c3cncn32)CC1 (stereo not shown) [Compound 7, 2-(5H-imidazo[5,1-a]isoindol-5-yl)-1-(1-(2-nitrophenyl)piperidin-4-yl)ethanol] | > 50 |  | 
> 50 | OC(CC1c2ccccc2-c2cncn21)C1CCN(c2ccc(C(F)(F)F)cc2)CC1 (stereo not shown) [Compound 8, 2-(5H-imidazo[5,1-a]isoindol-5-yl)-1-(1-(4-(trifluoromethyl)phenyl)piperidin-4-yl)ethanol] | > 50 |  | 
 | O=[N+]([O-])c1cc(C(F)(F)F)ccc1N1CCC(C(O)CC2c3ccccc3-c3cncn32)CC1 (stereo not shown) [Compound 9, 2-(5H-imidazo[5,1-a]isoindol-5-yl)-1-(1-(2-nitro-4-(trifluoromethyl)phenyl)piperidin-4-yl)ethanol] |  | < 500 | < 200
> 50 | OC(C1CCCCC1)C1(C2c3ccccc3-c3cncn32)CC1 (stereo not shown) [Compound 13, (1-(5H-imidazo[5,1-a]isoindol-5-yl)cyclopropyl)(cyclohexyl) methanol] |  |  | 
 | OC(CC1c2ccccc2-c2cncn21)C12C[C@@H]3C[C@@H](CC(O)(C3)C1)C2 (stereo partly drawn) [Compound 14f, (1s,3r,5R,7S)-3-(1-hydroxy-2-(5H-imidazo[5,1-a]isoindol-5-yl)ethyl)adamantan-1-ol] |  | < 100 | < 200
 | OC(CC1c2c(F)cccc2-c2cncn21)C12C[C@@H]3C[C@@H](CC(O)(C3)C1)C2 (stereo partly drawn) [Compound 15d, (1s,3r,5R,7S)-3-(2-(6-fluoro-5H-imidazo[5,1-a]isoindol-5-yl)-1-hydroxyethyl)adamantan-1-ol] |  | < 100 | < 200
 | OC(CC1c2c(F)cccc2-c2cncn21)C12C[C@@H]3C[C@@H](CC(O)(C3)C1)C2 (stereo partly drawn) [Compound 15d-1, (1s,3r,5R,7S)-3-(2-(6-fluoro-5H-imidazo[5,1-a]isoindol-5-yl)-1-hydroxyethyl)adamantan-1-ol] |  | > 500 | 
 | OC(CC1c2c(F)cccc2-c2cncn21)C12C[C@@H]3C[C@@H](CC(O)(C3)C1)C2 (stereo partly drawn) [Compound 15d-2, (1s,3r,5R,7S)-3-(2-(6-fluoro-5H-imidazo[5,1-a]isoindol-5-yl)-1-hydroxyethyl)adamantan-1-ol] |  | > 500 | 
 | OC(CC1c2c(F)cccc2-c2cncn21)C12C[C@@H]3C[C@@H](CC(O)(C3)C1)C2 (stereo partly drawn) [Compound 15d-3, (1s,3r,5R,7S)-3-(2-(6-fluoro-5H-imidazo[5,1-a]isoindol-5-yl)-1-hydroxyethyl)adamantan-1-ol] |  | < 100 | 
 | OC(CC1c2c(F)cccc2-c2cncn21)C12C[C@@H]3C[C@@H](CC(O)(C3)C1)C2 (stereo partly drawn) [Compound 15d-4, (1s,3r,5R,7S)-3-(2-(6-fluoro-5H-imidazo[5,1-a]isoindol-5-yl)-1-hydroxyethyl)adamantan-1-ol] |  | > 500 | 
 | OC(CC1c2c(F)cccc2-c2cncn21)C12CC3CC(CC(C3)C1)C2 (stereo not shown) [Compound 15e, 1-((3r,5r,7r)-adamantan-1-yl)-2-(6-fluoro-5H-imidazo[5,1-a]isoindol-5-yl)ethanol] |  | < 100 | < 500
 | OC(CC1c2c(F)cccc2-c2cncn21)C12CCC(O)(CC1)CC2 (stereo not shown) [Compound 16, 4-(2-(6-fluoro-5H-imidazo[5,1-a]isoindol-5-yl)-1-hydroxyethyl)bicyclo[2.2.2]octan-1-ol] |  | < 100 | < 200
 | OC1[C@@H]2CC3C[C@H]1CC(C(O)CC1c4c(F)cccc4-c4cncn41)(C3)C2 (stereo partly drawn) [Compound 17, (1R,2s,3S,5s,7s)-5-(2-(6-fluoro-5H-imidazo[5,1-a]isoindol-5-yl)-1-hydroxyethyl)adamantan-2-ol] |  | < 100 | < 200
 | OC(CC1c2c(F)cccc2-c2cncn21)C1C2CC3CC1CC(O)(C3)C2 [Compound 18k-1, (1s,3R,5S,7s)-4-(2-(6-fluoro-5H-imidazo[5,1-a]isoindol-5-yl)-1-hydroxyethyl)adamantan-1-ol] |  | < 500 | 
 | OC(CC1c2c(F)cccc2-c2cncn21)C1C2CC3CC1CC(O)(C3)C2 [Compound 18k-2, (1s,3R,5S,7s)-4-(2-(6-fluoro-5H-imidazo[5,1-a]isoindol-5-yl)-1-hydroxyethyl)adamantan-1-ol] |  | < 100 | 

Compound | inhibition at 1 µM (human TDO enzyme) [%] | inhibition at 0.5 µM (human IDO enzyme (IDO1)) [%] | IC50 (human IDO enzyme (IDO1)) [nM] | IC50 (human TDO enzyme) [nM]
FC(F)(CC1c2ccccc2-c2cncn21)C1CCCCC1 (stereo not shown) [Compound 6, 5-(2-cyclohexyl-2,2-difluoroethyl)-5H-imidazo[5,1-a]isoindole] | > 50 | > 50 |  | 
OC(CC1c2ccccc2-c2cncn21)C12CC3CC(CC(C3)C1)C2 (stereo not shown) [Compound 10, 1-((3r,5r,7r)-adamantan-1-yl)-2-(5H-imidazo[5,1-a]isoindol-5-yl)ethanol] | > 50 |  | < 500 | 
